Experimental data taken from article PMC9848300, “Discovery of novel enasidenib analogues targeting inhibition of mutant isocitrate dehydrogenase 2 as antileukaemic agents” (Journal of Enzyme Inhibition and Medicinal Chemistry, 2023).
Numbering of substitutions follows the chain as printed. Read-outs that look alike come from different tables or passages of the source.

Assays:
HOP-92 = assay: NCI 60 antitumor screening (single dose / five doses); assay type: cell-based; conditions: Homo sapiens
HT29 = assay: as above; assay type: cell-based, human; conditions: for GI50: read-out: GI50
SW-620 = assay: as above; assay type: cell-based, human; conditions: for GI50: read-out: GI50
786-0 = assay: as above; assay type: cell-based; conditions: Homo sapiens
UO-31 = assay: as above; assay type: cell-based; conditions: Homo sapiens
T-47D = assay: as above; assay type: cell-based; conditions: Homo sapiens, T47D
HL-60(TB) cells [1] = assay: Cell cycle analysis (PI, flow cytometry); assay type: cell-based, human; conditions: 24 h
Description: Targeting cancer cell cycle has been emerged as a viable approach for cancer treatment. To recognise the role of compound 6c in GI of cancer cells, and induction of apoptosis in different phases, DNA flow cytometric analysis was performed to measure the effect of compound 6c on cell cycle progression for leukaemia, HL-60(TB) cancer cells.
Following that, two runs of wash with ice-cold phosphate-buffered saline (PBS) were performed. And then, the treated HL-60(TB) cells were centrifuged and frozen in ethanol (70%, ice-cold) then washed in PBS, resuspended with RNase ([…]), stained with PI ([…]), finally analysed by flow cytometry using a FACS Calibur (Becton Dickinson, BD; Franklin Lakes, NJ). To calculate the cell cycle distributions, CellQuest software version 5.1 (Becton Dickinson) was used.

HL-60(TB) cells [2] = assay: Annexin V-FITC/PI apoptosis assay; assay type: cell-based, human; conditions: GI50 (158 nM), 24 h
Description: Extrinsic as well as intrinsic apoptosis in leukaemia, HL-60(TB) cancer cells, induced by compound 6c was evaluated by Annexin V and PI staining. […] Compound 6c induced an early apoptosis (2.88%), in HL-60(TB) at 24 h compared to control (0.51%) and enhanced late apoptotic induction (15.75%) by more than 85-fold over the untreated cells (0.18%). Moreover, compound 6c induced necrosis by 7 times more than control as declared in Figures 8 and 9.
Annexin V-fluorescein isothiocyanate (Annexin V-FITC) has high affinity to phosphatidylserine (PS). This affinity enables detection of PS by Annexin V-FITC staining as previously described.

active Caspase 3 = assay: Western blot analysis for apoptotic markers; assay type: cell-based, human; conditions: HL-60(TB) cells
Description: (§1) Cysteine-containing aspartic acid-specific proteases, caspases provide essential links in cell controlling the apoptotic machinery[45]^,[46]. For this reason, this study was further extended to investigate the mechanism of compound 6c to provoke apoptosis in HL-60(TB) leukaemia cell line.
(§2) Compound 6c was incubated with the seeded cells following the procedure described by W. Neal Burnette[60].

active Caspase 9 = assay: Western blot analysis for apoptotic markers; assay type: cell-based, human; conditions: HL-60(TB) cells
Description: as §1, §2

in vitro = conditions: human
Description: Data was measured in triplicate, and IC50 values are given as mean values ± SD.

IDH2^R140Q = molecular target: T1, IDH2^R140Q (Homo sapiens, UniProt P48735, R140Q); assay: biochemical
T1 sequence (P48735 40-452 R140Q): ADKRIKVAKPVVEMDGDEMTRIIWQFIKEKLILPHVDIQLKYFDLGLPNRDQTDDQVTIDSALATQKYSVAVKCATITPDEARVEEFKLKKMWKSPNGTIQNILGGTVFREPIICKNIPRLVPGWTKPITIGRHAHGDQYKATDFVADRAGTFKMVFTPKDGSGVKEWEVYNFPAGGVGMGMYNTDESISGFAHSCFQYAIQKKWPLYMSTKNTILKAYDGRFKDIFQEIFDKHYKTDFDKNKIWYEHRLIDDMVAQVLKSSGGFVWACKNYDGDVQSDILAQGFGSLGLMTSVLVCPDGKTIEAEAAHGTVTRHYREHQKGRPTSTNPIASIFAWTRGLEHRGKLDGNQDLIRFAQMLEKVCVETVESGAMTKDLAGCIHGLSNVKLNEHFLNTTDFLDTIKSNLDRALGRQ

wild type IDH2 = molecular target: T2, wild type IDH2 (Homo sapiens, UniProt P48735); assay: IDH2 enzyme inhibition assay (wild type IDH Assay Kit)
T2 sequence (P48735 40-452): T1 sequence (P48735 40-452 R140Q) with Q101R

SMILES: Brc1cccc(/C=N/Nc2nc(N/N=C/c3cccc(Br)c3)nc(N3CCOCC3)n2)c1 [compound 6c, 2,4-Bis[(E)-2-[(3-bromophenyl)methylidene]hydrazin-1-yl]-6-(morpholin-4-yl)-1,3,5-triazine]
- inhibition at 10 µM (HOP-92; HOP-92 (non-small cell lung cancer), single dose 10 μM, read-out: Growth inhibition percentage (GI %)): 36.2%
- GI50 (HOP-92; HOP-92, five doses (0.01–100 μM), read-out: GI50): 1240 nM
- GI50 (HT29; HT29, five doses (0.01–100 μM)): 610 nM
- GI50 (HT29; Homo sapiens, HT-29, HT29, five doses (0.01–100 μM)): 600 nM
- inhibition at 10 µM (HT29; Homo sapiens, HT-29, HT29 (colon cancer), single dose 10 μM, read-out: Growth inhibition percentage (GI %)): 93.4%
- GI50 (SW-620; Homo sapiens, SW-620, SW-620, five doses (0.01–100 μM)): 820 nM
- inhibition at 10 µM (SW-620; Homo sapiens, SW-620 (colon cancer), single dose 10 μM, read-out: Growth inhibition percentage (GI %)): 75.3%
- GI50 (SW-620; SW-620, five doses (0.01–100 μM)): 830 nM
- inhibition at 10 µM (786-0; 786-0, 786-0 (renal cancer), single dose 10 μM, read-out: Growth inhibition percentage (GI %)): 75.5%
- GI50 (786-0; 786-0, five doses (0.01–100 μM), read-out: GI50): 530 nM
- inhibition at 10 µM (UO-31; UO-31 (renal cancer), single dose 10 μM, read-out: Growth inhibition percentage (GI %)): 74.5%
- GI50 (UO-31; UO-31, five doses (0.01–100 μM), read-out: GI50): 1010 nM
- inhibition at 10 µM (T-47D; T-47D (breast cancer), single dose 10 μM, read-out: Growth inhibition percentage (GI %)): 43.5%
- GI50 (T-47D; T-47D, five doses (0.01–100 μM), read-out: GI50): 3940 nM
- increase of apoptotic cells at the pre-G1 phase compared to DMSO (HL-60(TB) cells [1]; 158 nM): 14 fold
- Cell cycle distribution %G0–G1 (HL-60(TB) cells [1]; GI50 concentration (158 nM)): 54.06%
- Cell cycle distribution %G2/M (HL-60(TB) cells [1]; GI50 concentration (158 nM)): 4.76%
- Cell cycle distribution %Pre-G1 (HL-60(TB) cells [1]; GI50 concentration (158 nM)): 28.02%
- Cell cycle distribution %S (HL-60(TB) cells [1]; GI50 concentration (158 nM)): 41.18%
- early apoptosis (HL-60(TB) cells [2]): 2.88%
- late apoptotic induction (HL-60(TB) cells [2]): 15.75%
- late apoptotic induction over the untreated cells (HL-60(TB) cells [2]): more than 85 fold
- necrosis induction relative to control (HL-60(TB) cells [2]): 7 times
- expression of active caspase 3 in comparison to the control (active Caspase 3): about 3 fold
- expression of active caspase 9 in comparison to the control (active Caspase 9): ~4 fold
- IC50 (in vitro): 53700 ± 2940 nM
- IC50 (IDH2^R140Q): 102 ± 4.97 nM
- IC50 (wild type IDH2): 2930 ± 110 nM
